The text below walks through data of patent US9085561B2, “Cyclic urea- or lactam-substituted quinoxaline-type piperidines as ORL-1 modulators” (priority 2012, dated 2015).

The target of test [1] is human opioid receptor-like (ORL-1) (Homo sapiens, UniProt P41146). The test can be described thus: In vitro ORL-1 receptor [35S]GTPγS functional assay. It counts as biochemical. (GTPγS is a poorly hydrolysed GTP analogue; its binding reports G protein activation.)
The target in the next test is human CYP2D6 (Homo sapiens, UniProt P10635). Kind of test: Cytochrome P450 2D6 inhibition (dextromethorphan O-demethylation, pooled human hepatic microsome).
Test [2] deals with mechanical hyperalgesia in rats subjected to partial sciatic nerve ligation. The test can be described thus: Seltzer model (partial sciatic nerve ligation) of neuropathic pain, paw pressure assay (PWT). It counts as in vivo, rat. The conditions noted are these: for maximum analgesic efficacy of pregabalin (10 mg/kg) as fraction of % reversal of Compound B9a: 3 hours after day 1 administration.

SMILES strings stand for the structures. Marks after values point to notes of the source that are not given here. Some results are limits rather than exact numbers.

Chain of human CYP2D6 (P10635 whole entry): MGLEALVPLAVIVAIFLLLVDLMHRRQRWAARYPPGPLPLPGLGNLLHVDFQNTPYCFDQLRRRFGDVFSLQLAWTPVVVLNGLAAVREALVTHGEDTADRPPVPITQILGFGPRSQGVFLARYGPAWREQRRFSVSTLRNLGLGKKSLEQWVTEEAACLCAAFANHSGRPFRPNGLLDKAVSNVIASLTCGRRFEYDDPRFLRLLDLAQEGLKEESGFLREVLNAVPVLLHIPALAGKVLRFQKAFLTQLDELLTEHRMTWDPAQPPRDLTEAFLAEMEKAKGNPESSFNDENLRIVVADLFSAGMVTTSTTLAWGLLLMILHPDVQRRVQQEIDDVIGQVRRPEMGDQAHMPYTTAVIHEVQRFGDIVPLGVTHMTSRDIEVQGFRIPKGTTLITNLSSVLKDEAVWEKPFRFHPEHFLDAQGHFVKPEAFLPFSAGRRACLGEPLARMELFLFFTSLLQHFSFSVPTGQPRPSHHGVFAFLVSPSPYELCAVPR
Chain of human opioid receptor-like (ORL-1) (P41146 whole entry): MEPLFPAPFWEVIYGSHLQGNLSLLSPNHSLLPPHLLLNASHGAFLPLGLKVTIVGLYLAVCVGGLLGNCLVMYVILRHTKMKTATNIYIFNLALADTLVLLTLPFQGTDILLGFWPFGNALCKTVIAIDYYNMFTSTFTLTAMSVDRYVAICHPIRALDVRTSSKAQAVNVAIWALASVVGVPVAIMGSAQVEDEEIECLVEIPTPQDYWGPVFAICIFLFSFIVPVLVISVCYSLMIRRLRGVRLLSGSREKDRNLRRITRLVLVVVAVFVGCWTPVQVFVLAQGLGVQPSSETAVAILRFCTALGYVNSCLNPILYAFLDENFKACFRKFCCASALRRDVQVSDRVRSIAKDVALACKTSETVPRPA

A word on the EC50: it is the concentration giving half of the maximal effect. A lower EC50 goes with an effect from little substance. One may read the IC50 as the concentration that inhibits the measured activity by half. High values mean weaker potency, low ones greater potency. `O=c1cnn(-c2nc3ccccc3n([C@H]3C[C@H]4CCC[C@@H](C3)N4C3CCCCCCC3)c2=O)c(=O)[nH]1` [Compound H9c, 2-(4-((1R,3r,5S)-9-cyclooctyl-9-azabicyclo[3.3.1]nonan-3-yl)-3-oxo-3,4-dihydroquinoxalin-2-yl)-1,2,4-triazine-3,5(2H,4H)-dione] came in with an EC50 in test [1] of 0.376 ± 0.016 µM. Besides, the IC50 at human CYP2D6 was more than 20 µM.

In turn, `O=c1[nH]cc(F)cc1-c1nc2ccccc2n([C@H]2C[C@H]3CCC[C@@H](C2)N3[C@H]2C[C@@H]3CCC[C@@H](C3)C2)c1=O` [R16a(i), 1-((1R,1′R,3r,3′R,5S,5′S)-[3,9′-bi(9′-azabicyclo[3.3.1]nonan)]-3′-yl)-3-(5-fluoro-2-oxo-1,2-dihydropyridin-3-yl)quinoxalin-2(1H)-one] came in with an EC50 in test [1] of 1.61 ± 0.441 µM. In addition, the IC50 against human CYP2D6 was more than 20 µM.

On to `CC(C)C[C@H](CN)CC(=O)O` [Pregabalin, pregabalin, reference compound], for which the “% Reversal [mean]” value in test [2] (rat Seltzer model, positive control column, oral 10 mg/kg, 3 h after administration (day 1), 10 mg/kg) is 28.0** %; in test [2] (rat Seltzer model, positive control column, oral 10 mg/kg, 3 h after administration (day 1), listed as pregabalin, 10 mg/kg), 28.0%; in test [2] (rat Seltzer model, positive control, oral 10 mg/kg, 1 h after administration (day 1)), 17.0%; in test [2] (rat Seltzer model, positive control, oral 10 mg/kg, 5 h after administration (day 1)), 15.0%; in test [2] (rat Seltzer model, positive control, oral 10 mg/kg, pre-administration), 0%. Besides, the “maximum analgesic efficacy of pregabalin (10 mg/kg) as fraction of % reversal of Compound B9a” value in test [2] (versus B9a 1 mg/kg) is listed as “about 0.76”; in test [2] (versus B9a 3 mg/kg) it was “about 0.61”; in test [2] (versus B9a 10 mg/kg), “about 0.46”.

In test [1], `O=C1CNC(=O)N1c1nc2ccccc2n([C@H]2C[C@H]3CCC[C@@H](C2)N3[C@H]2C[C@@H]3CCC[C@@H](C3)C2)c1=O` [Compound B20a, 3-(4-((1R,1′R,3r,3′R,5S,5′S)-[3,9′-bi(9′-azabicyclo[3.3.1]nonan)]-3′-yl)-3-oxo-3,4-dihydroquinoxalin-2-yl)imidazolidine-2,4-dione] had an EC50 of more than 20 µM. This molecule yielded an IC50 against human CYP2D6 of more than 20 µM.

As for `Cc1nn(-c2nc3ccccc3n([C@H]3C[C@H]4CCC[C@@H](C3)N4[C@H]3C[C@@H]4CCC[C@@H](C4)C3)c2=O)c(=O)[nH]c1=O` [Compound B10a, 2-(4-((1R,1′R,3r,3′R,5S,5′S)-[3,9′-bi(9′-azabicyclo[3.3.1]nonan)]-3′-yl)-3-oxo-3,4-dihydroquinoxalin-2-yl)-6-methyl-1,2,4-triazine-3,5(2H,4H)-dione], the EC50 in test [1] was more than 20 µM. At human CYP2D6, this molecule registered an IC50 of more than 20 µM.

In test [1], `O=c1cnn(-c2nc3ccccc3n([C@H]3C[C@H]4CCC[C@@H](C3)N4[C@@H]3C[C@@H]4CCCC[C@@H](C4)C3)c2=O)c(=O)[nH]1` [Compound O9b, 2-(4-((1R,3R,5S)-9-((1R,6S,8s)-bicyclo[4.3.1]decan-8-yl)-9-azabicyclo[3.3.1]nonan-3-yl)-3-oxo-3,4-dihydroquinoxalin-2-yl)-1,2,4-triazine-3,5(2H,4H)-dione] gave an EC50 of more than 20 µM. Further, on human CYP2D6, the IC50 is more than 20 µM.

In test [1], `Nc1ccn(-c2nc3ccccc3n([C@H]3C[C@H]4CCC[C@@H](C3)N4[C@H]3C[C@@H]4CCC[C@@H](C4)C3)c2=O)c(=O)n1` [B5a(i), 1-((1R,1′R,3r,3′R,5S,5′S)-[3,9′-bi(9′-azabicyclo[3.3.1]nonan)]-3′-yl)-3-(4-amino-2-oxopyrimidin-1(2H)-yl)quinoxalin-2(1H)-one] yielded an EC50 of more than 20 µM. Also, at human CYP2D6, the IC50 was more than 20 µM.

`O=c1cnn(-c2nc3ccccc3n([C@H]3C[C@H]4CCC[C@@H](C3)N4[C@H]3C[C@@H]4CCC[C@@H](C4)C3)c2=O)c(=O)[nH]1` [Compound B9a]: the “reversal compared with the pregabalin control” value in test [2] (1, 3, or 10 mg/kg, all measured time-points on the first day of administration) is reported as “more effective reversal than the pregabalin control”. The “effects against mechanical hyperalgesia” value in test [2] (once daily administration (3 or 10 mg/kg) for seven days, rats with partial sciatic nerve ligation) was “statistically significant effects”. In addition, the “% Reversal [mean]” value in test [2] (rat Seltzer model, oral 1 mg/kg, 1 h after administration (day 1)) was 27.0* %; in test [2] (rat Seltzer model, oral 1 mg/kg, 3 h after administration (day 1), 1 mg/kg) it was 37.0%; in test [2] (rat Seltzer model, oral 1 mg/kg, 5 h after administration (day 1)), 27.0* %; in test [2] (rat Seltzer model, oral 1 mg/kg, pre-administration), 0%; in test [2] (rat Seltzer model, oral 3 mg/kg once daily, 1 h after administration (day 4)), 40.8** %; in test [2] (rat Seltzer model, oral 3 mg/kg once daily, 1 h after administration (day 7)), 47.7** %. In addition, the “% Reversal [mean]” value in test [2] (rat Seltzer model, oral 3 mg/kg once daily, 3 h after administration (day 4), 3 mg/kg) is recorded as 46.2%; in test [2] (rat Seltzer model, oral 3 mg/kg once daily, 3 h after administration (day 7), 3 mg/kg) it was 55.2%; in test [2] (rat Seltzer model, oral 3 mg/kg once daily, 5 h after administration (day 4)), 36.9** %; in test [2] (rat Seltzer model, oral 3 mg/kg once daily, 5 h after administration (day 7)), 42.2** %; in test [2] (rat Seltzer model, oral 3 mg/kg, 1 h after administration (day 1)), 33.1** %; in test [2] (rat Seltzer model, oral 3 mg/kg, 3 h after administration (day 1), 3 mg/kg) it was 46.2%. The “% Reversal [mean]” value in test [2] (rat Seltzer model, oral 3 mg/kg, 5 h after administration (day 1)) was 34.6** %; in test [2] (rat Seltzer model, oral 3 mg/kg, pre-administration), 0%; in test [2] (rat Seltzer model, oral 10 mg/kg once daily, 1 h after administration (day 4)), 53.8** %; in test [2] (rat Seltzer model, oral 10 mg/kg once daily, 1 h after administration (day 7)), 50.0** %; in test [2] (rat Seltzer model, oral 10 mg/kg once daily, 3 h after administration (day 4), 10 mg/kg), 64.2%; in test [2] (rat Seltzer model, oral 10 mg/kg once daily, 3 h after administration (day 7), 10 mg/kg), 63.5%. Besides, the “% Reversal [mean]” value in test [2] (rat Seltzer model, oral 10 mg/kg once daily, 5 h after administration (day 4)) was 47.7** %; in test [2] (rat Seltzer model, oral 10 mg/kg once daily, 5 h after administration (day 7)), 42.2** %; in test [2] (rat Seltzer model, oral 10 mg/kg, 1 h after administration (day 1)) it was 49.2** %; in test [2] (rat Seltzer model, oral 10 mg/kg, 3 h after administration (day 1), 10 mg/kg), 61.5%; in test [2] (rat Seltzer model, oral 10 mg/kg, 5 h after administration (day 1)) it was 46.9** %; in test [2] (rat Seltzer model, oral 10 mg/kg, pre-administration), 0%. Also, the “tolerance development with repeated administration” value in test [2] (repeated administration for 7 days, rat Seltzer model) is “lack of tolerance development”. Moreover, at human CYP2D6, the IC50 is more than 20 µM.

On human CYP2D6, `O=C(O)Cn1ccc(-c2nc3ccccc3n([C@H]3C[C@H]4CCC[C@@H](C3)N4[C@H]3C[C@@H]4CCC[C@@H](C4)C3)c2=O)cc1=O` [Compound U010, 2-(4-(4-((1R,1′R,3r,3R,5S,5′S)-[3,9′-bi(9′-azabicyclo[3.3.1]nonan)]-3′-yl)-3-oxo-3,4-dihydroquinoxalin-2-yl)-2-oxopyridin-1(2H)-yl)acetic acid] returned an IC50 of more than 20 µM.

On human CYP2D6, `C[C@@H]1C[C@@H]2C[C@H](C1)C[C@@H](N1[C@@H]3CCC[C@H]1C[C@@H](n1c(=O)c(N4C(=O)NC(C)(C)C4=O)nc4ccccc41)C3)C2` [Compound B47a] displayed an IC50 of more than 20 µM.

`NC1CCN(c2nc3ccccc3n(C3CCN(C4CCCCCCC4)CC3)c2=O)CC1` [CC22, reference compound]: on human CYP2D6, the IC50 is 1 µM.

On human CYP2D6, `O=c1[nH]nc(-c2nc3ccccc3n([C@H]3C[C@H]4CCC[C@@H](C3)N4[C@H]3C[C@@H]4CCC[C@@H](C4)C3)c2=O)[nH]1` [R6a(i)(i), 1-((1R,1′R,3r,3′R,5S,5′S)-[3,9′-bi(9′-azabicyclo[3.3.1]nonan)]-3′-yl)-3-(5-oxo-4,5-dihydro-1H-1,2,4-triazol-3-yl)quinoxalin-2(1H)-one] returned an IC50 of more than 20 µM.

`O=C1CCN(c2nc3ccccc3n(C3CCN(C4CCCCCCC4)CC3)c2=O)N1` [CC119, reference compound] yielded an IC50 against human CYP2D6 of more than 20 µM.

With `N[C@@H]1CCN(c2nc3ccccc3n(C3CCN(C4CCCCCCC4)CC3)c2=O)C1` [CC51, reference compound], the IC50 against human CYP2D6 is less than 1 µM.

Regarding `Nc1ccn(-c2nc3ccccc3n([C@H]3C[C@H]4CC[C@@H](C3)N4[C@@H]3C[C@@H]4CCCC[C@@H](C4)C3)c2=O)c(=O)n1` [Compound U066, 3-(4-amino-2-oxopyrimidin-1(2H)-yl)-1-((1R,3R,5S)-8-((1R,6S,8s)-bicyclo[4.3.1]decan-8-yl)-8-azabicyclo[3.2.1]octan-3-yl)quinoxalin-2(1H)-one], at human CYP2D6, the IC50 is more than 20 µM.

Take `O=C(O)c1cc(-c2nc3ccccc3n([C@H]3C[C@H]4CCC[C@@H](C3)N4[C@@H]3C[C@@H]4CCCC[C@@H](C4)C3)c2=O)c[nH]c1=O` [Compound U043, 5-(4-((1R,3R,5S)-9-((1R,6S,8s)-bicyclo[4.3.1]decan-8-yl)-9-azabicyclo[3.3.1]nonan-3-yl)-3-oxo-3,4-dihydroquinoxalin-2-yl)-2-oxo-1,2-dihydropyridine-3-carboxylic acid]: the IC50 on human CYP2D6 is more than 20 µM.
